Laboratory results taken from ChEMBL document CHEMBL1201862, “PubChem BioAssay data set” (2004).
The source made the active and inactive calls.

Legend:
[1] = P. falciparum late gametocyte killing, dose response, luminescence (AID 1117278); assay type: functional, cell-based;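 also: gametocytes exposed to compound for 24 hours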
[2] = Jurkat T cell cytotoxicity, dose response, cytotoxicity control for P. falciparum gametocyte viability project, luminescence (AID 1117277); assay type: functional, cell-based;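 also: potency reflects loss of cellular ATP meaning fewer viable cells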
[3] = Counterscreen for […] of the human trace amine associated receptor 1 (TAAR1): Fluorescence-based cell-based high throughput dose response assay to identify nonselective Ga16 agonists.; assay type: functional
[4] = Counterscreen for antagonists of the human trace amine associated receptor 1 (hTAAR1): Fluorescence-based cell-based high throughput dose response assay to identify nonselective Ga16 antagonists.; assay type: functional
[5] = molecular target: T1, Trace amine-associated receptor 1 (Homo sapiens, UniProt Q96RJ0); assay: Fluorescence-based cell-based high throughput dose response assay to identify antagonists of the human trace amine associated receptor 1 (TAAR1).; assay type: functional
T1 sequence (Q96RJ0 whole entry): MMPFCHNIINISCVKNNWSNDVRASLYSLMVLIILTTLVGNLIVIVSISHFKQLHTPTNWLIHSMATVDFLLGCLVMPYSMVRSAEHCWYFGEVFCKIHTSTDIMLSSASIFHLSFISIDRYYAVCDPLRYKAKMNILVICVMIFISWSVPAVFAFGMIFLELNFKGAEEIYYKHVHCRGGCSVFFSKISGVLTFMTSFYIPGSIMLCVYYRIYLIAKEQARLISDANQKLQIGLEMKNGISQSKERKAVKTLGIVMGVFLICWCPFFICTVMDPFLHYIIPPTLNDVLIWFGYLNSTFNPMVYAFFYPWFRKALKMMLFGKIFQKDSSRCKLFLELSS

[6] = molecular target: T1, Trace amine-associated receptor 1; assay: Counterscreen for antagonists of the human trace amine associated receptor 1 (hTAAR1): Fluorescence-based cell-based high throughput dose response assay to identify TAAR1 Agonists.; assay type: functional
[7] = ADAM10 inhibitors, peptide cleavage, dose response, biochemical, QFRET (AID 743254);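 also: ADAM10 enzyme with the DM2 quenched FRET peptide as substrate; EDANS fluorescence gain as the protease cuts the substrate; inhibitor potency against ADAM10 proteolytic activity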
[8] = Luminescence Cell-Based Dose Retest to Confirm Inhibitors of Cancer Stem Cells. [Related pubchem assays (depositor defined):AID2717, AID2721]; assay type: functional; details: Homo sapiens
[9] = molecular target: Disintegrin and metalloproteinase domain-containing protein 17 (Homo sapiens, UniProt P78536); assay: ADAM17 protease inhibitors, dose response, counter-screen for ADAM10 exosite inhibitor project, biochemical, quenched FRET substrate (AID 743253)
Galanin receptor type 3 = molecular target: T2, Galanin receptor type 3 (Homo sapiens, UniProt O60755); assay: Fluorescence-based cell-based primary high throughput dose response assay to identify antagonists of the Galanin Receptor 3 (GalR3).; assay type: functional
T2 sequence (O60755 whole entry): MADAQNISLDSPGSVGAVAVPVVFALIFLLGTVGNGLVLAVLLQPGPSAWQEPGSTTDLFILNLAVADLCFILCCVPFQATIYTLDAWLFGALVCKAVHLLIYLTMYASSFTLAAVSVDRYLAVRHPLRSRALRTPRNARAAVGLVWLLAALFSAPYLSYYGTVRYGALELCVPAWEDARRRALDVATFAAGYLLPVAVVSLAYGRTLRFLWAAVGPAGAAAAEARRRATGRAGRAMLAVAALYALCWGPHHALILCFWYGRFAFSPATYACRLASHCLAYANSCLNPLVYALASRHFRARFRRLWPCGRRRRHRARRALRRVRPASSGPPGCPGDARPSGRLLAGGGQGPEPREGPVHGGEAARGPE

cells [10] = assay type: functional, cell-based; details: HEK-CNG
[11] = molecular target: COUP transcription factor 2 (Homo sapiens, UniProt P24468); assay: Luminescence-based cell-based high throughput dose response assay to identify inhibitors of COUP-TFII (NR2F2).; assay type: functional;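 also: HEK293 cells transiently cotransfected with COUP-TFII expression vector and reporter; luciferase reporter luminescence driven by COUP-TFII from the pX2-168 reporter plasmid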
fMet-Leu-Phe receptor = fMet-Leu-Phe receptor (Homo sapiens, UniProt P21462); assay: FPR ligands, dose response (AID 519); assay type: functional
Prothrombin = Prothrombin (Homo sapiens, UniProt P00734); assay: Thrombin 1536 HTS Dose Response Confirmation. [Related pubchem assays: 1046 (Thrombin 1536 HTS; hits were confirmed in this assay)]; assay type: functional
Protein Tat = Protein Tat (Human immunodeficiency virus type 1 group M subtype B (isolate HXB2)(HIV-1), UniProt P04608); assay type: functional;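 also: tat binding to TAR RNA read out by fluorescence polarization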
Major prion protein = Major prion protein (Homo sapiens, UniProt P04156); assay type: functional, cell-based
cells [12] = assay: cells
[13] = C. albicans growth with fluconazole, confirmation, fluorescence, retest (AID 2467); assay type: functional, cell-based
[14] = inhibitors of intracellular T. cruzi replication, confirmation, NIH3T3 host cells, beta-gal luminescence (AID 2044); assay type: functional, cell-based;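 also: intracellular parasites grown in NIH/3T3 mouse fibroblasts as host cells; luminescent beta-galactosidase reporter signal from transgenic T. cruzi replicating inside host cells; inhibitors lower the luminescence signal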
[15] = NIH-3T3 fibroblast cytotoxicity, dose response, cytotoxicity control, cell-based, fluorescence, Alamar Blue, secondary assay (AID 2327); assay type: functional;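 also: NIH-3T3 mouse fibroblasts cultured with fluconazole at 8 µg/mL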
[16] = cytotoxicity toward NIH3T3 fibroblasts, dose response, counter-screen, cell-based, ATP luminescence, mouse fibroblasts (AID 2010); assay type: functional;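 also: cells exposed to compound for about 90 hours before reading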
[17] = molecular target: T3, Carboxy-terminal domain RNA polymerase II polypeptide A small phosphatase 1 (Homo sapiens, UniProt Q9GZU7); assay: inhibitors of CTDSP1, concentration-response testing, biochemical assay, absorbance-based, actives from ultra-high-throughput screening (AID 540297); assay type: functional
T3 sequence (Q9GZU7 whole entry): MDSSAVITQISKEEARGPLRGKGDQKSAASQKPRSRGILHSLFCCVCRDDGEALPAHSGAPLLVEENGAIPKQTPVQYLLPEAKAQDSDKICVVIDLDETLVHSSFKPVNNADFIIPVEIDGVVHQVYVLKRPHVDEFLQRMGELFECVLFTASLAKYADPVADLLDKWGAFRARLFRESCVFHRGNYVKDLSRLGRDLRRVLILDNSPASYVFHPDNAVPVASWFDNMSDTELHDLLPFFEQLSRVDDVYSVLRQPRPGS

[18] = Luminescence-based cell-based high throughput dose response assay to identify activators of the DAF-12 from the parasite S. stercoralis (ssDAF-12).; assay type: functional
[19] = molecular target: T4, Probable nicotinate-nucleotide adenylyltransferase (Staphylococcus aureus (strain N315), UniProt P65502); assay type: functional, Staphylococcus aureus subsp. aureus N315;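 as to IC50 Mean: confirmatory dose-response retesting of NadD inhibitor hits first found in an ultra-high-throughput screen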
[20] = molecular target: T4, Probable nicotinate-nucleotide adenylyltransferase; assay type: functional, Staphylococcus aureus subsp. aureus N315; details: read-out: IC50_Mean
[21] = molecular target: Induced myeloid leukemia cell differentiation protein Mcl-1 (Homo sapiens, UniProt Q07820); assay type: functional
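For AC50 in this document: cells exposed to compound for roughly 70 hours or longer before luminescence read.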

Compound: CC1CCCCN1C(=O)Cn1c(=O)oc2ccccc21 (centres undefined)
- IC50 [1]: > 109 µM (inactive)
- IC50 [2]: > 83.3 µM (inactive)

Compound: CC(C)C[C@H](NC(=O)c1[nH]cnc1C(=O)NCC(=O)OCc1ccccc1)C(=O)OCc1ccccc1
- EC50 [3]: > 29.9 µM (inactive)
- IC50 [4]: > 29.9 µM (inactive)
- IC50 [5]: 4.32 µM (active)
- EC50 [6]: > 29.9 µM (inactive)

Compound: COc1ccccc1Nc1ccc(NC(=O)c2cccc([N+](=O)[O-])c2C)cc1
- IC50 [7]: 15.4 µM (inactive)
- AC50 [8]: 3.32 µM (active)
- IC50 [9]: > 69.5 µM (inactive)

Compound: CC(C)c1ccc(CN2CCN(C(=O)CSc3nnnn3C3CC3)CC2)cc1
- IC50 (Galanin receptor type 3): 1.34 µM (active)
- EC50 (cells [10]): > 29.9 µM (inactive)
- IC50 [11]: 8.28 µM (active)

Compound: Cc1cc(N2C(=O)C(O)=C(C(=O)c3ccco3)C2c2cccnc2)no1 (centres undefined)
- Ki (fMet-Leu-Phe receptor): > 66.7 µM (inactive)

Compound: CN1C(=O)/C(=C2\SC(=S)N(C(CCC(=O)O)C(=O)O)C2=O)c2ccccc21 (centres undefined)
- IC50 (Prothrombin): > 50 µM (not active)
- Ki (fMet-Leu-Phe receptor): > 66.7 µM (inactive)

Compound: Cc1cc(-c2csc(NC(=O)c3cc4ccccc4o3)n2)c(C)n1C
- IC50 (Protein Tat): > 100 µM (active)

Compound: O=C(COc1ccc2ccccc2c1Br)Nc1ccncc1
- IC50 (Major prion protein): 10.4 µM (inactive)
- IC50 (cells [12]): > 138 µM (inactive)

Compound: O=C(NNc1ccccc1)C(=O)NNS(=O)(=O)c1ccc(CCCl)cc1
- EC50 [13]: > 38 µM (not active)
- IC50 [7]: 23.4 µM (inactive)
- EC50 [14]: 2 µM (active)
- EC50 [15]: 2.67 µM (inconclusive)
- IC50 [9]: 27 µM (inactive)
- EC50 [16]: 3.48 µM (active)

Compound: Cc1csc(NC(=O)c2cc(-c3ccco3)nc3ccccc23)n1
- IC50 [17]: 4.76 µM (active)
- IC50 [18]: > 67.5 µM (inactive)
- IC50 [19]: 9.45 µM (active)
- IC50 [20]: 18.4 µM (active)
- IC50 [21]: 4.03 µM (active)
